Data published in BindingDB's records for doi:10.1021/jm00388a036 (1987).

Biological target: Thymidine kinase (Herpes simplex virus 1)
Test: Binding affinity was determined against Herpes simplex virus (HSV) -1 thymidine kinase in vero cell monolayer culture

Ki: 25 µM
SMILES: Nc1nc2c(ncn2CC=C(CO)CO)c(=O)[nH]1
